Source: ChEMBL document CHEMBL1151293, “End-Product Regulation of Ergot Alkaloid Formation in Intact Cells and Protoplasts of Claviceps Species, Strain SD 58” (1980)

What was measured:
[1] = test system: Claviceps; experiment: Inhibition of alkaloid biosynthesis in Claviceps SD 58 protoplast assessed as incorporation of L-[methylene-14C] tryptophan at 4 mM relative to control; assay type: functional; set-up: scale not given: the % may be the effect or the level left
[2] = test system: Claviceps; experiment: Inhibition of alkaloid biosynthesis in intact cells of Claviceps SD 58 assessed as incorporation of L-[methylene-14C] tryptophan at 3 mM after 24 hrs relative to control; assay type: functional
[3] = test system: Claviceps; experiment: Inhibition of alkaloid biosynthesis in intact cells of Claviceps SD 58 assessed as incorporation of L-[methylene-14C] tryptophan at 3 mM; assay type: functional
[4] = test system: Claviceps; experiment: Inhibition of DMAT synthase in Claviceps SD 58 assessed as conversion of 1-14C]dimethylallylpyrophosphate to dimethylallyltryptophan at 3 mM after 5 days; set-up: scale not given: the % may be the effect or the level left

## CN1CC(CO)=C[C@@H]2c3cccc4[nH]cc(c34)C[C@H]21 [listing 1 of 3 here]
[1]
  Activity: 50%
[2]
  fold change (FC): 2

## CN1CC(CO)=C[C@@H]2c3cccc4[nH]cc(c34)C[C@H]21 [listing 2 of 3 here]
[3]
  inhibition at 3000 µM: 29%

## CC1=C[C@@H]2c3cccc4[nH]cc(c34)C[C@H]2N(C)C1
[4]
  Activity: 90%

## CN1CC(CO)=C[C@@H]2c3cccc4[nH]cc(c34)C[C@H]21 [listing 3 of 3 here]
[4]
  Activity: 70%
